From publication PMC11339798, “Dual inhibitors of Pseudomonas aeruginosa virulence factors LecA and LasB” (Chemical Science, 2024)

What was measured:
HepG2 = test: Cytotoxicity MTT assay; format: cell-based, human; details: HepG2, at 100 μM
Method: (§1) Selectivity and toxicity assays […]
(§2) Cytotoxicity on human liver (HepG2), kidney (HEK293) and lung (A549) cells were performed
(§3) using MTT assay and measuring the optical density (OD) photometrically at 570 nm in a […]

HEK293 = test: Cytotoxicity MTT assay; format: cell-based, human; details: HEK293, at 100 μM
Method: as §1, §2, §3

Cytotoxicity MTT assay [1] = format: cell-based, human; details: human
Method: as §1, §2, §3

MMP-7 = target: T1, MMP-7 (Homo sapiens, UniProt P09237); test: MMP selectivity assay (SensoLyte 520 Generic MMP Activity Kit); format: biochemical; details: read-out: Percent inhibition at 100 µM, MMP-7, 100 µM
T1 construct: purchased AnaSpec (Fremont, CA, USA)
Source text: (§4) Given that the novel inhibitors contain a free thiol as a strong zinc binding group, we analyzed the selectivity of the diastereomeric mixtures 11 and 12 on six human matrix metalloproteases (MMPs) as putative off-targets.[53] […] Furthermore, we tested the impact of 11 and 12 on bacterial viability to ensure that these compounds are antivirulence agents and not antibiotics. […]
(§5) Selectivity and toxicity assays
(§6) Human MMPs -1, -2, -3, -7, -8 and -14 along with the SensoLyte 520 Generic MMP Activity
(§7) Kit*Fluorimetric* were purchased from AnaSpec (Fremont, CA, USA). The inhibition assay

MMP-2 = target: T2, MMP-2 (Homo sapiens, UniProt P08253); test: as above; format: biochemical; details: read-out: Percent inhibition at 100 µM, MMP-2, 100 µM
T2 construct: purchased AnaSpec (Fremont, CA, USA)
Source text: as §4, §5, §6, §7

MMP-8 = target: T3, MMP-8 (Homo sapiens, UniProt P22894); test: as above; format: biochemical; details: read-out: Percent inhibition at 100 µM, MMP-8, 100 µM
T3 construct: purchased AnaSpec (Fremont, CA, USA)
Source text: as §4, §5, §6, §7

MMP-1 = target: T4, MMP-1 (Homo sapiens, UniProt P03956); test: as above; format: biochemical; details: read-out: Percent inhibition at 100 µM, MMP-1, 100 µM
T4 construct: purchased AnaSpec (Fremont, CA, USA)
Source text: as §4, §5, §6, §7

MMP-3 = target: T5, MMP-3 (Homo sapiens, UniProt P08254); test: as above; format: biochemical; details: read-out: Percent inhibition at 100 µM, MMP-3, 100 µM
T5 construct: purchased AnaSpec (Fremont, CA, USA)
Source text: as §4, §5, §6, §7

MMP-14 = target: T6, MMP-14 (Homo sapiens, UniProt P50281); test: as above; format: biochemical; details: read-out: Percent inhibition at 100 µM, MMP-14, 100 µM
T6 construct: purchased AnaSpec (Fremont, CA, USA)
Source text: as §4, §5, §6, §7

LecA = target: T7, LecA (Pseudomonas aeruginosa, UniProt Q05097); test: Competitive binding assay for LecA based on fluorescence polarization; set-up: species or system P. aeruginosa
T7 construct: made in house; host or cells: E. coli (plasmid pET25-pail)
Method: The four thiols 17, 18, 24 and 25 as well as three disulfides 26a, 26b and 27 were then evaluated for their activity against LecA using a competitive binding assay based on fluorescence polarization (Fig. 4B). […]
(§8) Expression and purification of LasB and LecA
LecA was expressed recombinantly using E. coli pET25-pail, whereas LasB was isolated from P. aeruginosa PA14 culture supernatant as described previously. 1,2
LecA labeling with fluorescein was performed in analogy to Sommer et al. 3 and Beshr et al.4 To this end fluorescein isothiocyanate (FITC) was freshly dissolved in carbonate-bicarbonate buffer with pH of 9.3 at a concentration of 3 mg mL-1. Subsequently, 66 µL of this FITC solution was combined with 1.4 mL of LecA at a concentration of 60 µM in carbonate-bicarbonate buffer, pH 9.3. The resulting mixture was then incubated at 25 °C with shaking at 500 rpm for 1 hour. Then, extensive washing with PBS/Ca2+ in a 5 kDa molecular weight cutoff centrifugal concentrator was performed to remove excess dye and buffer the labelled protein. […]
Competitive binding assay for LecA
The procedure for the fluorescence polarization-based competitive binding assay for LecA was performed as reported by Joachim et al. with modifications. 1 The assay was performed in TBS/Ca2+ buffer (20 mM Tris, 137 mM NaCl, 2.6 mM KCl at pH 7.4 supplemented with 1 mM CaCl 2 and contained 5% DMSO). The final protein concentration in the assay was 5 µM for LecA. Fluorescence intensities were recorded on a PheraStar FS plate reader (BMG Labtech GmbH, Germany) and polarization was calculated using MARS Data Analysis (BMG Labtech).
IC50 values were obtained from a four-parameter curve-fitting procedure. Averages and standard deviations were calculated from at least three independent experiments of technical

A549 = test: Cytotoxicity MTT assay; format: cell-based, human; details: A549, at 100 μM
Method: as §1
(§9) Cytotoxicity on human liver (HepG2), kidney (HEK293) and lung (A549) cells were performed using MTT assay and measuring the optical density (OD) photometrically at 570 nm in a FLUOstar Omega plate reader (BMG labtech, Ortenberg, Germany) as described previously. 6 […]
(§10) The A549 cell line, derived from human lung adenocarcinoma, was grown in Dulbecco's Modified Eagle Medium (DMEM) supplemented with 10% Fetal Bovine Serum (FBS) and 1% penicillin-streptomycin. […]

Cytotoxicity MTT assay [2] = format: cell-based, human; details: human, A549 cells (lung)
Method: as §1, §9, §10

LasB = target: T8, LasB (Pseudomonas aeruginosa, UniProt Q02RJ6); test: FRET-based in vitro LasB inhibition (proteolysis) assay; format: biochemical, P. aeruginosa PA14
T8 construct: P. aeruginosa PA14 culture supernatant; made in house; host or cells: native secreted enzyme purified from P. aeruginosa PA14 culture supernatant (not recombinant)
Method: The LasB activity of the thiol derivatives 11, 12, 17, 18, 24 and 25 was tested using a functional FRET-based in vitro proteolysis assay (Fig. 4A). […]
as §8
LecA was expressed recombinantly using E. coli pET25-pail, whereas LasB was isolated from P. aeruginosa PA14 culture supernatant as described previously. 1,2 […]
In vitro inhibition assay for LasB
The in vitro inhibition assay was performed as described previously,2 using purified LasB (final concentration 0.3 nM), the fluorogenic substrate 2-aminobenzoyl-Ala-Gly-Leu-Ala-4-nitrobenzylamide (purchased from Peptides International (Louisville, KY, USA) or Vivitide, LLC (Gardner, MA, USA), final concentration 150 µM)) in assay buffer (50 mM Tris, pH 7.2, 2.5 mM CaCl2, 0.075% Pluronic F-127, 5% DMSO). Fluorescence was measured using a CLARIOstar plate reader (BMG Labtech, Ortenberg, Germany). IC50 values were calculated using GraphPad Prism 8 (GraphPad Software, San Diego, CA, USA) from at least three independent experiments performed in duplicate.

[3] = test system: Pseudomonas aeruginosa PA14; test: Antibacterial activity (MIC, ESCMID guidelines); format: cell-based; details: for MIC: Pseudomonas aeruginosa, PA14; for antimicrobial activity (bacterial viability): up to 100 μM
Method: as §4, §1
Antimicrobial activity against P. aeruginosa PA14 was tested using ESCMID guidelines and […]

T8 sequence (Q02RJ6 198-498): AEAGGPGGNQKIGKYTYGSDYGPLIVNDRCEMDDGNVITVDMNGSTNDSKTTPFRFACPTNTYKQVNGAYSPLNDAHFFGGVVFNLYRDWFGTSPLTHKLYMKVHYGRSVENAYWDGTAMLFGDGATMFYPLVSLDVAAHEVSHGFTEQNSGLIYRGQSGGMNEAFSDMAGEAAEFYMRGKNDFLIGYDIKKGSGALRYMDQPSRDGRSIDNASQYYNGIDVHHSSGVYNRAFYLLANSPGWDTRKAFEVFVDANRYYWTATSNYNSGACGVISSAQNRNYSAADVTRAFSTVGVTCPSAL
T4 sequence (P03956 100-469): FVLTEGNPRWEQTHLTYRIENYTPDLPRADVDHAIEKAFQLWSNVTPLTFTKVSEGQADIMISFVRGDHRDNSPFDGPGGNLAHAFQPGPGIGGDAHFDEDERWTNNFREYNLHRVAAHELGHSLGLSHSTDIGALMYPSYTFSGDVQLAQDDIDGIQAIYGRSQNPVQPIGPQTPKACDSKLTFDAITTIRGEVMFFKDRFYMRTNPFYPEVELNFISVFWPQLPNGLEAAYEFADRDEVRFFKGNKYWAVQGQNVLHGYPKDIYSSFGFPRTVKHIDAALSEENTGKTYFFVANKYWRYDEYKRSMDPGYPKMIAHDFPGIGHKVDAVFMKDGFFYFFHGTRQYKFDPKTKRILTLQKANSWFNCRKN
T7 sequence (Q05097 whole entry): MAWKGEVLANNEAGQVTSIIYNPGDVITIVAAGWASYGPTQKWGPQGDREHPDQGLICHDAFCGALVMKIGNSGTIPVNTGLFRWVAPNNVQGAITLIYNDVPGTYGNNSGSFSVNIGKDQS
T2 sequence (P08253 110-660): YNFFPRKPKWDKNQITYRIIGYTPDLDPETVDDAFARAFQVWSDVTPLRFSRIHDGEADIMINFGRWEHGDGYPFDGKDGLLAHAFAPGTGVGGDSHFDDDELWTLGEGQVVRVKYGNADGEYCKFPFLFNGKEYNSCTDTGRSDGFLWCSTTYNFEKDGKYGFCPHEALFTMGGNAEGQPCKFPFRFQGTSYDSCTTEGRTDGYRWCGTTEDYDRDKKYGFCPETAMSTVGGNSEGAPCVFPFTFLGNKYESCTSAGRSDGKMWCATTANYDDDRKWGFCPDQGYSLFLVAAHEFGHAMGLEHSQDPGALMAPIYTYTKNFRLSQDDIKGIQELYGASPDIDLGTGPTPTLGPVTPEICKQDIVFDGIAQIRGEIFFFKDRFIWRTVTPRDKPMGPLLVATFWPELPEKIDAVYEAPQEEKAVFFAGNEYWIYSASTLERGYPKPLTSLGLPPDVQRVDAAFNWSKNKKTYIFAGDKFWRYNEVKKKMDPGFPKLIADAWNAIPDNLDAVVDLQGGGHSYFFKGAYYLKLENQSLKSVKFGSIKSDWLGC
T5 sequence (P08254 100-477): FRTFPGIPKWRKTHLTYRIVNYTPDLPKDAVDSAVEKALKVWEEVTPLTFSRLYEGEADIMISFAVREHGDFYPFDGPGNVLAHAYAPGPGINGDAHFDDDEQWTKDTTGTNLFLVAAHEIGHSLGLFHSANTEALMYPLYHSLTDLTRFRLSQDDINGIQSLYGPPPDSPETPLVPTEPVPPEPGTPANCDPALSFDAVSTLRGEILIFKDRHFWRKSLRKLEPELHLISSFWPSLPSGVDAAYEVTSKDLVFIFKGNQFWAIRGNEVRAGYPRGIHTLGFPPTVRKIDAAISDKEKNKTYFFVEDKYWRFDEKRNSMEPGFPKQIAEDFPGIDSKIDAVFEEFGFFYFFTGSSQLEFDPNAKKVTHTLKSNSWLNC
T3 sequence (P22894 101-467): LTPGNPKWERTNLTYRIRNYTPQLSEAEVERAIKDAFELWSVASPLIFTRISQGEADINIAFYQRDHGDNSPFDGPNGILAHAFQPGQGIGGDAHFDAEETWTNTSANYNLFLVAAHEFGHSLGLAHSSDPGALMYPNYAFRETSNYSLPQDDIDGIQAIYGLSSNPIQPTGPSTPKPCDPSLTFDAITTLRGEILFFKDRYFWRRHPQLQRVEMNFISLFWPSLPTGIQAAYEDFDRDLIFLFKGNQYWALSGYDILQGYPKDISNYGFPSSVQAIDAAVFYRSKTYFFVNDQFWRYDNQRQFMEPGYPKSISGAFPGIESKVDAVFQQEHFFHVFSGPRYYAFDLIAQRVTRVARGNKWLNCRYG
T1 sequence (P09237 95-267): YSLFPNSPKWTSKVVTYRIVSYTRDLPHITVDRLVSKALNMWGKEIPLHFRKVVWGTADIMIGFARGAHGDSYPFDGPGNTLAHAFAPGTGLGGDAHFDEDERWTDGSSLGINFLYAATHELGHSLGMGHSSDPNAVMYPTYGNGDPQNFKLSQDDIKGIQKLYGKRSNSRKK

| Structure (SMILES) | cytotoxicity (HepG2) | cytotoxicity (HEK293) | IC50 (Cytotoxicity MTT assay [1]; HEK293 cells (kidney)) [µM] | IC50 (Cytotoxicity MTT assay [1]; HepG2 cells (liver)) [µM] | inhibition at 100 µM (MMP-7) [%] | inhibition at 100 µM (MMP-2) [%] | inhibition at 100 µM (MMP-8) [%] | inhibition at 100 µM (MMP-1) [%] | inhibition at 100 µM (MMP-3) [%] | inhibition at 100 µM (MMP-14) [%] | IC50 (LecA) [µM] | cytotoxicity (A549) | IC50 (Cytotoxicity MTT assay [2]) [µM] | IC50 (LasB) [µM] | MIC [3] [µM] | antimicrobial activity (bacterial viability) [3] |
| --- | --- | --- | --- | --- | --- | --- | --- | --- | --- | --- | --- | --- | --- | --- | --- | --- |
| CC(C)CC(S)C(=O)Nc1ccc(S[C@@H]2O[C@H](CO)[C@H](O)[C@H](O)[C@H]2O)cc1 (some centres unmarked) [Compound 12] | no detectable cytotoxicity | no detectable cytotoxicity | > 100 | > 100 | < 10 | 19 ± 3 | < 10 | < 10 | < 10 | 19 ± 5 | 19.8 | no detectable cytotoxicity | > 100 | 0.8 | > 100 | No antimicrobial activity was detected |
| O=C(Nc1ccc(S[C@@H]2O[C@H](CO)[C@H](O)[C@H](O)[C@H]2O)cc1)C(S)Cc1ccccc1 (some centres unmarked) [Compound 11] | no detectable cytotoxicity | no detectable cytotoxicity | > 100 | > 100 | < 10 | < 10 | < 10 | 10 ± 5 | < 10 | < 10 | 18.1 | no detectable cytotoxicity | > 100 | 0.3 | > 100 | No antimicrobial activity was detected |
